For three compounds, IC50 and melting point results are on record in patent publication US6960607B2, “Naphthyl benzoxazoles and benzisoxazoles as estrogenic agents” (Wyeth, priority 2001, dated 2005).

One data set has as its target T1, human ERβ (Homo sapiens, UniProt Q92731).
T1 construct: M214-Q530 of human ERβ; Flag (C); made in house; host or cells: E. coli BL21(DE3); clarified lysate used
In words: Radioligand binding competition with [3H]-17β-estradiol, ERβ. The settings on record: ligand binding domain expressed in E. coli lysate, read-out: ER-β IC50.

In another data set the target is T2, human ERα (Homo sapiens, UniProt P03372).
T2 construct: amino acids M250V595 of human ERα; His (N); made in house; host or cells: E. coli BL21(DE3); clarified lysate used
T2 sequence (P03372 250-595): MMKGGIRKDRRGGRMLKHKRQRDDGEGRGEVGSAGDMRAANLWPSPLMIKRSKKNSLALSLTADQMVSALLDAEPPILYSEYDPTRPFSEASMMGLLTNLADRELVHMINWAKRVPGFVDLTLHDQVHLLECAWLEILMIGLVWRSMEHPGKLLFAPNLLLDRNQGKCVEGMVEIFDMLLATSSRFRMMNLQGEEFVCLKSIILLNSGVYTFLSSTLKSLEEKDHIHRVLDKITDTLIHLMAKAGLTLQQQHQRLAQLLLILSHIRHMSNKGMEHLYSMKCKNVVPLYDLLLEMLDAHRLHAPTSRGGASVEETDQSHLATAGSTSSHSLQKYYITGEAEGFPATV
Description: Radioligand binding competition with [3H]-17β-estradiol, ERα. The note with it: ligand binding domain expressed in E. coli lysate, read-out: ER-α IC50.

T1 sequence (Q92731 214-530): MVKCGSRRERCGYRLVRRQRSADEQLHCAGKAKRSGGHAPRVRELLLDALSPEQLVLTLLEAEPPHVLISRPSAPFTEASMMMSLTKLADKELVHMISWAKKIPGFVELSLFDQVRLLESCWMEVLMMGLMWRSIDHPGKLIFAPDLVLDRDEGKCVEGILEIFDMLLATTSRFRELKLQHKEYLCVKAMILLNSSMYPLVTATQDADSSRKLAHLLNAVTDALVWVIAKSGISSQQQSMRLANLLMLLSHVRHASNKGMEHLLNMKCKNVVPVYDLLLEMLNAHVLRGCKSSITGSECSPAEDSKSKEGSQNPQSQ

In the case of `Oc1ccc2oc(-c3ccc(O)c4ccccc34)nc2c1` [Example 6, 2-(4-Hydroxy-1-naphthyl)-1,3-benzoxazol-5-ol], the melting point fell in the range of 182 to 184 °C. At human ERβ, the concentration for half-maximal inhibition (IC50) was found to be 230 nM. Moreover, the IC50 at human ERα was 581 nM.
The like results for `Cn1nc(-c2ccc3cc(O)ccc3c2)c2ccc(O)cc21` [Example 17, 3-(6-Hydroxy-2-naphthyl)-1-methyl-1H-indazol-6-ol] were, in that order, 290 to 292 °C, 1510 nM and more than 5000 nM.
`CCn1nc(-c2ccc3cc(O)ccc3c2)c2ccc(O)cc21` [Example 18, 1-Ethyl-3-(6-hydroxy-2-naphthyl)-1H-indazol-6-ol] registered a melting point of 146 to 148 °C. In addition, at human ERβ, the IC50 was more than 5000 nM. Besides, at human ERα, the half-maximal inhibitory concentration (IC50) came to 3170 nM.

The term IC50 denotes the concentration needed to halve the response being measured. The term melting point denotes the temperature, or range, at which the solid turns liquid.
